Data set [1] concerns the target T1, Solute carrier family 22 member 3 (Rattus norvegicus, UniProt O88446).
T1 sequence (O88446 whole entry): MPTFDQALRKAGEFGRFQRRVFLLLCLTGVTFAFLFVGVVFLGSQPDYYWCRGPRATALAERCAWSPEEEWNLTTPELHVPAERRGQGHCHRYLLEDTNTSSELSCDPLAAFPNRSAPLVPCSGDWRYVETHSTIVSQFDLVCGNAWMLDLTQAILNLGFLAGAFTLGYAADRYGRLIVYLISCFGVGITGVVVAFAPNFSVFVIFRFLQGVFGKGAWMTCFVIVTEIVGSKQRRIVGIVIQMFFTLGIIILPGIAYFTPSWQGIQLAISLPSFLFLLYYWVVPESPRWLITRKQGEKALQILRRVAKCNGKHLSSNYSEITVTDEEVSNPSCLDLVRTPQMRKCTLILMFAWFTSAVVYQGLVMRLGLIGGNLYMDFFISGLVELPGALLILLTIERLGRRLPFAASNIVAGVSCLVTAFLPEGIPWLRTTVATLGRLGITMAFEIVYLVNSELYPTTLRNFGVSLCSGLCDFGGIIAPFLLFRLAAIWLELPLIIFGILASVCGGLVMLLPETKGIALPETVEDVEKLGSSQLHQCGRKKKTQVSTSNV
The data set can be described thus: TP_TRANSPORTER: inhibition of MPP+ uptake (MPP+: 1 uM) in OCT3-expressing HRPE cells. Format: functional, cell-based.

Data set [2] has as its target T2, Solute carrier family 22 member 2 (Rattus norvegicus, UniProt Q9R0W2).
T2 sequence (Q9R0W2 whole entry): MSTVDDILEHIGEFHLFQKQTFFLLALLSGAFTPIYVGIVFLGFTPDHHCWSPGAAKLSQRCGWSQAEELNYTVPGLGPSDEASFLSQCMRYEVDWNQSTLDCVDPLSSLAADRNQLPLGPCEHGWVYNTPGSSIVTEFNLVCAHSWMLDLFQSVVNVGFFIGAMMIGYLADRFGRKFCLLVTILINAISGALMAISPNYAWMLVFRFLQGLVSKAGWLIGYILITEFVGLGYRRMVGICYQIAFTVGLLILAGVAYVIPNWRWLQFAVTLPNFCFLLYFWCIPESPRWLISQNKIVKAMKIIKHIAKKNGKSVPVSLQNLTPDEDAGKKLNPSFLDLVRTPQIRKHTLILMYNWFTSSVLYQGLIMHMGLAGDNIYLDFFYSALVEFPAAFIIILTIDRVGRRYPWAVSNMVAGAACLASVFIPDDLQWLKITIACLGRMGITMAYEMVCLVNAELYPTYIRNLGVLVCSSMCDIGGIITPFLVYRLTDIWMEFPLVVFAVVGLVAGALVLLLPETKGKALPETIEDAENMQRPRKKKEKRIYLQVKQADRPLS
The data set can be described thus: TP_TRANSPORTER: inhibition of TEA uptake (TEA: 20 uM) in OCT2-expressing HRPE cells. The format is functional, cell-based.

In data set [3] the target is T1, Solute carrier family 22 member 3. The data set can be described thus: TP_TRANSPORTER: inhibition of Dopamine uptake (Dopamine: 0.15 uM, Cocaine: 100 uM) in OCT3-expressing HRPE cells. Format: functional, cell-based. The conditions noted are these: human.
The target in data set [4] is T3, Solute carrier family 22 member 1 (Rattus norvegicus, UniProt Q63089).
T3 sequence (Q63089 whole entry): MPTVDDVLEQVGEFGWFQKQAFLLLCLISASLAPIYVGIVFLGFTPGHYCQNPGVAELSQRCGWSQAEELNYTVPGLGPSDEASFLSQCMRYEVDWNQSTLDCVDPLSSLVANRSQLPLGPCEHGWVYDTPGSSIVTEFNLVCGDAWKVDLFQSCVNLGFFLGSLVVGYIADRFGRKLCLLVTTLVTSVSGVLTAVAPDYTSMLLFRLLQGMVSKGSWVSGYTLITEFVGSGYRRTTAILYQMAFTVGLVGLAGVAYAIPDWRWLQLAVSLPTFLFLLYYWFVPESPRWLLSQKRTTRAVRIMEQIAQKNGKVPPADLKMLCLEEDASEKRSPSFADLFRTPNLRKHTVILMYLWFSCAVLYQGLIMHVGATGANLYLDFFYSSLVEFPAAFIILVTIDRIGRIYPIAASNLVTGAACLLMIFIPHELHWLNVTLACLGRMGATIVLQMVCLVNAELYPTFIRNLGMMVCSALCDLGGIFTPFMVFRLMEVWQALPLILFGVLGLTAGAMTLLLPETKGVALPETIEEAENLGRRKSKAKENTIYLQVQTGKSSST
The data set can be described thus: TP_TRANSPORTER: inhibition of TEA uptake (TEA: 20 uM, Corticosterone: 100 uM) in OCT1-expressing HRPE cells. Format: functional, cell-based. The following applies: human.

In data set [5] the target is T1, Solute carrier family 22 member 3. Briefly: TP_TRANSPORTER: inhibition of TEA uptake (TEA: 20 uM) in OCT3-expressing HRPE cells. The format is functional, cell-based.
The target of data set [6] is T3, Solute carrier family 22 member 1. Briefly: TP_TRANSPORTER: inhibition of TEA uptake (TEA: 20 uM, Deoxycorticosterone: 100 uM) in OCT1-expressing HRPE cells. The format is functional, cell-based. The following applies: human.
For data set [7], the target named is T1, Solute carrier family 22 member 3. The data set can be described thus: (§1) TP_TRANSPORTER: uptake in OCT3-expressing HRPE cells. The format is functional, cell-based. The following applies: human.
Data set [8] concerns the target T3, Solute carrier family 22 member 1. Briefly: TP_TRANSPORTER: inhibition of TEA uptake (TEA: 20 uM, beta-Estradiol: 100 uM) in OCT1-expressing HRPE cells. Format: functional, cell-based. The conditions noted are these: human.
For data set [9] the target is unchanged. Briefly: TP_TRANSPORTER: inhibition of TEA uptake in OCT1-expressing HRPE cells. Format: functional, cell-based. The conditions noted are these: human.
Data set [10] has the same target. Briefly: TP_TRANSPORTER: inhibition of TEA uptake (TEA: 20 uM, Testosterone: 100 uM) in OCT1-expressing HRPE cells. The format is functional, cell-based. The following applies: human.
Substrate in data set [11]: C[n+]1ccc(-c2ccccc2)cc1
Described as §1. The format is functional, cell-based.

Substrate in data set [12]: C[n+]1ccc(-c2ccccc2)cc1
The data set can be described thus: TP_TRANSPORTER: uptake (electrogenesis, -50mV) in Xenopus laevis oocytes. Format: functional, cell-based, Oocyte.

This note sets out measurements from ChEMBL document CHEMBL2074049, “Identity of the organic cation transporter OCT3 as the extraneuronal monoamine transporter (uptake2) and evidence for the expression of the transporter in the brain” (J Biol Chem, 1998).

The IC50 is the concentration that gives 50% inhibition. In data set [1], `CC(N)Cc1ccccc1` (stereo unspecified) [AMPHETAMINE] showed an IC50 of 42 µM.
Consider `C[C@]12C[C@H](O)[C@H]3[C@@H](CCC4=CC(=O)CC[C@@]43C)[C@@H]1CC[C@@H]2C(=O)CO` [CORTICOSTERONE], for which the IC50 in data set [2] was found to be 4.2 µM; in data set [5], 4.9 µM. Moreover, the Activity result is “inhibitor [(at a rough estimate) 5 % of control]” in data set [3] and “is not an inhibitor [-]” in data set [4].
On to `CNCCCN1c2ccccc2CCc2ccccc21` [DESIPRAMINE], for which the IC50 in data set [1] was 68 µM.
With `C[C@]12CC[C@H]3[C@@H](CCC4=CC(=O)CC[C@@]43C)[C@@H]1CC[C@@H]2C(=O)CO` [DESOXYCORTICOSTERONE], the IC50 in [2] is 1.9 µM; in data set [5] it was 8.4 µM. Also, the Activity result in data set [6] is “is not an inhibitor [-]”.
As for `NCCc1ccc(O)c(O)c1` [DOPAMINE], the IC50 in data set [2] is 2300 µM; in [1] it was 62 µM; in [5], 384 µM. In addition, the Activity result in [7] was “substrate [+]”.
`C[C@]12CC[C@@H]3c4ccc(O)cc4CC[C@H]3[C@@H]1CC[C@@H]2O` [ESTRADIOL]: the figures for the IC50 in data set [2] and in data set [5] were 84.8 µM and 1.1 µM, respectively. In addition, in [8], the Activity result is “is not an inhibitor [-]”.
For `CN[C@@H](C)Cc1ccccc1` [METHAMPHETAMINE], the IC50 in data set [1] is 248 µM.
Take `NC[C@H](O)c1ccc(O)c(O)c1` [NOREPINEPHRINE]: the figures for the IC50 in [2] and in data set [5] were 11000 µM and 434 µM, respectively.
As to `CC(=O)[C@H]1CC[C@H]2[C@@H]3CCC4=CC(=O)CC[C@]4(C)[C@H]3CC[C@]12C` [PROGESTERONE], the IC50 amounted to 1.6 µM in [2] and 10.5 µM in data set [5]. The Activity entry in data set [9] was “inhibitor [+]”.
In [1], `NCCc1c[nH]c2ccc(O)cc12` [SEROTONIN] gave an IC50 of 97 µM.
For the molecule `C[C@]12CC[C@H]3[C@@H](CCC4=CC(=O)CC[C@@]43C)[C@@H]1CC[C@@H]2O` [TESTOSTERONE], the Activity result in [10] is “is not an inhibitor [-]”.

B1: Solute carrier family 22 member 3 (Rattus norvegicus) (protein)
chain: T1 sequence (O88446 whole entry)
For orientation: Km means the concentration of substrate that gives half-maximal velocity. For B1, the figures for the Km in data set [11] and in data set [12] were 91 µM and 24 µM, respectively.
